The values below come from the OPERA property sets (Mansouri et al. 2018).

As a reminder, the logP is a log measure of how a compound divides between an organic and an aqueous phase. The low end stands for a more hydrophilic compound, the high end for a more lipophilic compound.

Compound `COc1ccc(C(=O)N(NC(=O)c2ccccc2)C(C)(C)C)cc1OC` showed a logP of 2.09. As to `Cc1ccc(C)c(C(=O)N(NC(=O)c2ccccc2)C(C)(C)C)c1`, the logP was found to be 3.25. In the case of `CC(C)(C)N(NC(=O)c1ccccc1)C(=O)c1ccc(Br)cc1` it was 3.66. Compound `CC(C)(C)N(NC(=O)c1ccccc1)C(=O)c1cccc(Cl)c1` had a logP of 3.28. Compound `CC(C)(C)N(NC(=O)c1ccccc1)C(=O)c1ccc(F)cc1` came in with a lipophilicity (logP) of 2.85. The figure for `CC(C)(C)N(NC(=O)c1ccccc1)C(=O)c1ccc(Cl)cc1Cl` is 3.55. In the case of `CC(C)(C)N(NC(=O)c1ccccc1)C(=O)c1c(F)cccc1F` it was 2.16. For the compound `CC(C)(C)N(NC(=O)c1ccccc1)C(=O)c1cccc([N+](=O)[O-])c1`, the log partition coefficient (logP) amounted to 2.73.

In turn, `CC(C)(C)N(NC(=O)c1ccccc1)C(=O)c1ccccc1[N+](=O)[O-]` returned a logP of 2.27. Regarding `Cc1cccc(C(=O)N(NC(=O)c2ccccc2)C(C)(C)C)c1C`, the logP was determined as 3.1. In the case of `CC(C)(C)N(NC(=O)c1ccccc1)C(=O)c1ccc(I)cc1` it was 3.78. Consider `CC(C)(C)N(NC(=O)c1ccccc1)C(=O)c1cc(Cl)ccc1Cl`, for which the logP is 3.36. In the case of `Cc1ccc(C(=O)N(NC(=O)c2ccccc2)C(C)(C)C)c(C)c1` it was 3.18; in that of `CC(C)(C)N(NC(=O)c1ccccc1)C(=O)c1ccc(Cl)c(Cl)c1`, 4.25; in that of `CCc1ccccc1C(=O)N(NC(=O)c1ccccc1)C(C)(C)C`, 2.96. The figure for `CC(C)(C)N(NC(=O)c1ccccc1)C(=O)c1cccc(C#N)c1` is 2.34. In the case of `Cc1ccc(C(=O)N(NC(=O)c2ccccc2)C(C)(C)C)cc1C` it was 3.34; in that of `CC(C)(C)N(NC(=O)c1ccccc1)C(=O)c1cccc(Cl)c1Cl`, 3.41; in that of `CC(C)(C)N(NC(=O)c1ccccc1)C(=O)c1ccc(Cl)cc1`, 3.42. For the compound `CC(C)(C)N(NC(=O)c1ccccc1)C(=O)c1ccccc1I`, the lipophilicity (logP) worked out at 2.83.

`Cc1cc(C)cc(C(=O)N(NC(=O)c2ccccc2)C(C)(C)C)c1` registered a logP of 3.39.

Consider `CC(C)(C)N(NC(=O)c1cccc(Cl)c1)C(=O)c1ccccc1Cl`, for which the logP turned out to be 3.49. The figure for `CC(C)(C)N(NC(=O)c1ccccc1)C(=O)c1cc(F)c(F)c(F)c1F` is 3.44; for `CC(C)(C)N(NC(=O)c1ccccc1)C(=O)c1c(F)c(F)c(F)c(F)c1F` it is 3.25. In the case of `COc1ccc(C(=O)N(NC(=O)c2ccccc2)C(C)(C)C)cc1` it was 2.56; in that of `CC(C)(C)N(NC(=O)c1ccccc1)C(=O)c1cccc(F)c1`, 2.78; in that of `CC(C)(C)N(NC(=O)c1ccccc1)C(=O)c1ccc(C#N)cc1`, 2.5. In the case of `CC(C)(C)N(NC(=O)c1ccccc1)C(=O)c1ccccc1` it was 2.45. In the case of `CC(C)(C)N(NC(=O)c1ccccc1)C(=O)c1ccccc1Br`, the logP was determined as 2.69.

On to `CC(C)(C)N(NC(=O)c1ccccc1)C(=O)c1cccc(C(F)(F)F)c1`, for which the logP was found to be 3.61. In the case of `Cc1ccc(C(=O)N(NC(=O)c2ccccc2)C(C)(C)C)cc1` it was 2.99; in that of `CC(C)(C)N(NC(=O)c1ccccc1)C(=O)c1cccc(Br)c1`, 3.49; in that of `CC(C)(C)N(NC(=O)c1ccccc1Cl)C(=O)c1ccccc1Cl`, 2.75. With `COc1ccccc1C(=O)N(NC(=O)c1ccccc1)C(C)(C)C`, the logP was 2.04.

`CC(C)(C)N(NC(=O)c1ccccc1)C(=O)c1ccc([N+](=O)[O-])cc1` displayed a logP of 2.63. The figure for `CC(C)(C)N(NC(=O)c1ccccc1)C(=O)c1ccc(C(F)(F)F)cc1` is 3.77; for `CSc1ccccc1C(=O)N(NC(=O)c1ccccc1)C(C)(C)C` it is 2.6. The figure for `CC(C)(C)N(NC(=O)c1ccccc1)C(=O)c1c(F)cccc1Cl` is 2.34. The figure for `Cc1c(Cl)cccc1C(=O)N(NC(=O)c1ccccc1)C(C)(C)C` is 3.57; for `CC(C)(C)N(NC(=O)c1ccccc1)C(=O)c1c(Cl)cccc1Cl` it is 2.56; for `CC(C)(C)N(NC(=O)c1ccccc1)C(=O)c1ccccc1F` it is 2.38. As for `Cc1cccc(C(=O)N(NC(=O)c2ccccc2)C(C)(C)C)c1`, the logP came to 2.79. The figure for `CC(C)(C)N(NC(=O)c1ccccc1)C(=O)c1ccccc1C(F)(F)F` is 2.85; for `Cc1ccccc1C(=O)N(NC(=O)c1ccccc1)C(C)(C)C` it is 2.75; for `CC(C)(C)N(NC(=O)c1ccccc1)C(=O)c1cccc(I)c1` it is 3.72.

`COc1cccc(C(=O)N(NC(=O)c2ccccc2)C(C)(C)C)c1` gave a logP of 2.56.
